One experiment deals with T1, human Trk A kinase (Homo sapiens, UniProt P04629).
T1 construct: His; made in house; host or cells: SF9 insect cells
Kind of experiment: Trk A kinase Alphascreen assay. The format is biochemical. To be noted: HIS-tagged intracellular domain of human Trk A, 70 μM ATP, 20 minutes, room temperature; read-out: Trk inhibitory activity IC50. The procedure:
Trk A kinase activity was measured for its ability to phosphorylate synthetic tyrosine residues within a generic polypeptide substrate using an Amplified Luminescent Proximity Assay (Alphascreen) technology (PerkinElmer, 549 Albany Street, Boston, Mass.).
To measure Trk A kinase activity, the intracellular domain of a HIS-tagged human Trk A kinase (amino acids 442-796 of Trk A, Swiss-Prot Primary Accession Number P04629) was expressed in SF9 cells and purified using standard nickel column chromatography. After incubation of the kinase with a biotinylated substrate and adenosine triphosphate (ATP) for 20 minutes at room temperature, the kinase reaction was stopped by the addition of 30 mM ethylenediaminetetraacetic acid (EDTA). The reaction was performed in 384 well microtitre plates and the reaction products were detected with the addition of strepavidin coated Donor Beads and phosphotyrosine-specific antibodies coated Acceptor Beads using the EnVision Multilabel Plate Reader after an overnight incubation at room temperature.

In another experiment the target is T2, human JAK2 (Homo sapiens, UniProt O60674).
T2 construct: human JAK2, amino acids 808-end; His6 (C); purchased Upstate Biotechnology 14-640; host or cells: baculovirus in Sf21 cells
Kind of experiment: JAK2 kinase Alphascreen assay. It is filed as biochemical. To be noted: recombinant human JAK2 (aa 808-end), 30uM ATP, 60 minutes, room temperature; read-out: JAK inhibitory activity IC50. On the technique in general: In Alpha technology, singlet oxygen from a donor bead excites a nearby acceptor bead.

T1 sequence (P04629 442-796): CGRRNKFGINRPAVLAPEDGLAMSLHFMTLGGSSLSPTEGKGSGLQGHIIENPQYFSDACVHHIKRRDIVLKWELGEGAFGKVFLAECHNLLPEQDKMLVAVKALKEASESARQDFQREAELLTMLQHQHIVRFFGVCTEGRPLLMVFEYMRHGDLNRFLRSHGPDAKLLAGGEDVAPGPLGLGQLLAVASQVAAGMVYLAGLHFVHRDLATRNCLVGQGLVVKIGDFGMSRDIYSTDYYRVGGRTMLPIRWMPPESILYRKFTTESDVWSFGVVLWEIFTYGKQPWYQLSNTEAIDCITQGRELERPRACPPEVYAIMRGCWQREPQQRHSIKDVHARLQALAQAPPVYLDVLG
T2 sequence (O60674 808-1132 limits assumed): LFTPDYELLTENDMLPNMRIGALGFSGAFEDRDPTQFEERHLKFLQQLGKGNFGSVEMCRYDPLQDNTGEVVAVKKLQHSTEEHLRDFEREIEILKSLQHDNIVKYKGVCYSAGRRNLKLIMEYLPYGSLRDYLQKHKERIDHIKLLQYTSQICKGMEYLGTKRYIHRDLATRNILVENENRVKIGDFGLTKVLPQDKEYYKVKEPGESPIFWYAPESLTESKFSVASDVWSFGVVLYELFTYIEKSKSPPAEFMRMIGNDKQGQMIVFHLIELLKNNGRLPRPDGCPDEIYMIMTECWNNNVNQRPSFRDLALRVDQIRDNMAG
Protocol for human JAK2: JAK2 kinase activity was measured for its ability to phosphorylate synthetic tyrosine residues within a generic polypeptide substrate using an Amplified Luminescent Proximity Assay (Alphascreen) technology (PerkinElmer, 549 Albany Street, Boston, Mass.).
To measure JAK2 kinase activity, commercially available purified enzyme, C-terminal His6-tagged, recombinant, human JAK2, amino acids 808-end, (Genbank Accession number NM 004972) expressed by baculovirus in Sf21 cells from Upstate Biotechnology #14-640 was used. After incubation of the kinase with a biotinylated substrate and adenosine triphosphate (ATP) for 60 minutes at room temperature, the kinase reaction was stopped by the addition of 30 mM ethylenediaminetetraacetic acid (EDTA). The reaction was performed in 384 well microtitre plates and the reaction products were detected with the addition of streptavidin coated Donor Beads and phosphotyrosine-specific antibodies coated Acceptor Beads using the EnVision Multilabel Plate Reader after an overnight incubation at room temperature.

As usually defined, the IC50 is the concentration needed to halve the response being measured. In the case of `CC(C)Oc1cc(Nc2nc(NC(C)c3ncc(F)cn3)ncc2Cl)n[nH]1` (centres unmarked) [Example 1, 5-Chloro-N^4-(5-isopropoxy-1H-pyrazol-3-yl)-N^2-[1-(5-fluoropyrimidin-2-yl)ethyl]pyrimidine-2,4-diamine], the IC50 on human Trk A kinase worked out at 33 nM.

Turning to `COc1cc(Nc2nc(N[C@@H](C)c3ncc(F)cn3)ncc2Cl)n[nH]1` [Example 7, 5-Chloro-N^2-[(1S)-1-(5-fluoropyrimidin-2-yl)ethyl]-10-(5-methoxy-1H-pyrazol-3-yl)pyrimidine-2,4-diamine], the half-inhibitory concentration (IC50) at human JAK2 was 3.9 nM.

The values are drawn from US8088784B2, “4-(3-aminopyrazole) pyrimidine derivatives for use as tyrosine kinase inhibitors in the treatment of cancer” (AstraZeneca AB, priority 2005, dated 2012).
